The record followed here is US20240092799A1, “MNK INHIBITORS” (Hepagene Therapeutics (HK) Limited, priority 2020, published 2024).

For orientation: IC50 means the point on the concentration scale where inhibition reaches its midpoint. A low value points to greater potency.

One experiment addresses MNK2 (Homo sapiens (Human), UniProt Q9HBH9). Put plainly: MNK Biochemical Enzymatic Assay (ADP-Glo), MNK2 binding assay. The essentials:
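Human MNK1 or MNK2 was preincubated with a 10-point, 1:3 serial dilution of compound for 15 min at 25 °C. Substrate was then added and the reaction ran 60 min at 25 °C. ADP formed was read by ADP-Glo luminescence, and IC50 came from non-linear regression.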
For orientation: ADP-Glo first removes unused ATP, then detects ADP through luciferase.

A further experiment concerns the target MNK1 (Homo sapiens (Human), UniProt Q9BUB5). As to the kind of experiment: MNK Biochemical Enzymatic Assay (ADP-Glo), MNK1 binding assay. The procedure: MNK Biochemical Enzymatic Assay. This protocol establishes the binding assays for MNK1 and MNK2 using ADP-Glo assay. MNK phosphorylates the substrate and converts ATP to ADP, which was detected by Envision and used to reflect the reminding activity of MNK. Reagents and equipment used in the assay are listed below, followed by the protocol.
• a) Add 50 μL compound to 384-well dilution plate • b) Dilute compound 1:3 in succession in DMSO for each column for 10+0 pts (refer to dilution plate map) • c) Transfer 0.1 μL diluted compound solution in each row to 384 assay plate using Echo, each column containing 2 replicates (refer to assay plate map) • d) Add 5 μL enzyme working solution to 384-well assay plate, centrifuge 1000 RPM for 1 min • e) Incubate at 25° C. for 15 min • f) Add 5 μL substrate working solution to initiate reaction • g) Incubate at 25° C. for 60 min • h) Add 10 μL ADP Glo reagent, centrifuge 1000 RPM for 1 min • i) Incubate at 25° C. for 60 min • j) Add 20 μL kinase detection reagent, centrifuge 1000 RPM for 1 min • k) Incubate at 25° C. for 60 min • l) Read on Envision for US LUM as RLU • m) Data analysis: IC50s were determined based on a non-linear regression analysis of data collected.

In a further experiment the test system is TMD-8 cell p-IF4E. Put plainly: p-eIF4E Signaling Cellular Assay (CisBio HTRF) in TMD-8 cells. Format: cell-based. The following applies: Homo sapiens, TMD8, 40 min, 40 min treatment. An outline of the steps:
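TMD-8 cells (20 k/well, exponential phase, RPMI 1640 + 10% FBS) treated with compound for 40 min at 37 °C, then lysed for 30 min and incubated overnight at RT with HTRF antibodies. 665/620 nm ratio converted to % inhibition vs controls; IC50 from variable-slope nonlinear fit.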
Background: TR-FRET usually uses a lanthanide donor and a delayed reading to cut background.

Sequence of MNK1 (Q9BUB5 other isoform, or with tags, fused parts or gaps isoform Q9BUB5-2): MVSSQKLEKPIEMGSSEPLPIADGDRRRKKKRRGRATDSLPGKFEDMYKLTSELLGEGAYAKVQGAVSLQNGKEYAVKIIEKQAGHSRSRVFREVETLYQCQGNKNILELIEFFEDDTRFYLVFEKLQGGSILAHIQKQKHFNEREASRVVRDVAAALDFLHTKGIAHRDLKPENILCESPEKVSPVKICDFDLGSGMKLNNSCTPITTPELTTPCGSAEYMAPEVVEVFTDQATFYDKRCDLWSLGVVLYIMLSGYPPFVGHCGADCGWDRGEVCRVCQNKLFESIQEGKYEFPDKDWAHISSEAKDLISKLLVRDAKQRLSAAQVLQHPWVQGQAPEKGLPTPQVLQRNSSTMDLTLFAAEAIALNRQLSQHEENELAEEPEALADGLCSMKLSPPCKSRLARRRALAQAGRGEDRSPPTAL
Sequence of MNK2 (Q9HBH9 whole entry): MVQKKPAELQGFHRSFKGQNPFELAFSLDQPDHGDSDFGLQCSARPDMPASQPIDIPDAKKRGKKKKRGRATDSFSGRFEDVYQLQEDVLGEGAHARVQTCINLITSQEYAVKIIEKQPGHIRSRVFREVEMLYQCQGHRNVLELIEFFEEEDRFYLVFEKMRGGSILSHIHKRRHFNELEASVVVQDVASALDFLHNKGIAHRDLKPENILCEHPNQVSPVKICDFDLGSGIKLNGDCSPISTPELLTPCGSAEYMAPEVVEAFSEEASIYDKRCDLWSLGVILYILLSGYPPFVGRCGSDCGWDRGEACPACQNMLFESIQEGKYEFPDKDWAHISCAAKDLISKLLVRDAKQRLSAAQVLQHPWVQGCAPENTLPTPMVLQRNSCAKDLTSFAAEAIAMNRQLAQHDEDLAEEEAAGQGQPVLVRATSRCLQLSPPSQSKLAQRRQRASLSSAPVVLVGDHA

Consider `Nc1cc(Nc2c3c(c4n(c2=O)C2(CCCCC2)NC4=O)CCC3)ncn1` [Compound I, 6′-((6-Aminopyrimidin-4-yl)amino)-8′,9′-dihydrospiro[cyclohexane-1,3′-cyclopenta[c]imidazo[1,5-a]pyridine]-1′,5′(2′H,7′H)-dione], for which the concentration for half-maximal inhibition (IC50) on MNK2 and on MNK1 was over 1000 nM in each case.

With `Nc1cc(Nc2c(=O)n3c(c4ccccc24)C(=O)NC32CCCCC2)ncn1` [Compound III, 6′-((6-Aminopyrimidin-4-yl)amino)-2′H-spiro[cyclohexane-1,3′-imidazo[5,1-a]isoquinoline]-1′,5′-dione], the IC50 at MNK2 and on MNK1 was over 1000 nM in each case.

On to `Cc1cc(Nc2cc(N)ncn2)c(=O)n2c1C(=O)N[C@]21C[C@H]2CC[C@@H]1C2` [Compound IIa, (1R,2R,4S)-6′-((6-Aminopyrimidin-4-yl)amino)-8′-methyl-2′H-spiro[bicyclo[2.2.1]heptane-2,3′-imidazo[1,5-a]pyridine]-1′,5′-dione], for which the IC50 on MNK2 and at MNK1 was 0.1 to 10 nM in each case.

`Cc1cc(Nc2cc(N)ncn2)c(=O)n2c1C(=O)N[C@@]21C[C@H]2CC[C@@H]1C2` [Compound IIb, (1R,2S,4S)-6′-((6-aminopyrimidin-4-yl)amino)-8′-methyl-2′H-spiro[bicyclo[2.2.1]heptane-2,3′-imidazo[1,5-a]pyridine]-1′,5′-dione]: the half-inhibitory concentration (IC50) on MNK2 and at MNK1 was 0.1 to 10 nM each time.

With `CN1CCN(c2ccc(Nc3cc(Nc4nc5c(s4)C(=O)NC54CCCCC4)ncn3)nc2)CC1` [Compound XXVIII-R, 2′-((6-((5-(4-methylpiperazin-1-yl)pyridin-2-yl)amino)pyrimidin-4-yl)amino)spiro [cyclohexane-1,4′-pyrrolo[3,4-d]thiazol]-6′(5′H)-one], the concentration for half-maximal inhibition (IC50) at MNK2 and in the experiment on TMD-8 cell p-IF4E was 0.1 to 10 nM in each case.

With `O=C1NC2(CCCCC2)c2cc(Nc3ncnc4c3CCN4)sc21` [Compound XXXI, 2′-((6,7-dihydro-5H-pyrrolo[2,3-d]pyrimidin-4-yl)amino)spiro[cyclohexane-1,4′-thieno[2,3-c]pyrrol]-6′(5′H)-one], the half-maximal inhibitory concentration (IC50) lay within 0.1 to 10 nM on MNK2 and 100 to 1000 nM in the experiment on TMD-8 cell p-IF4E.

Regarding `O=C1NC2(CCCCC2)c2cc(Nc3ncnc4[nH]c(C5CC5)cc34)sc21` [Compound XXXI-A, 2′-((6-cyclopropyl-7H-pyrrolo[2,3-d]pyrimidin-4-yl)amino)spiro[cyclohexane-1,4′-thieno[2,3-c]pyrrol]-6′(5′H)-one], the IC50 on MNK2 and in the experiment on TMD-8 cell p-IF4E was 0.1 to 10 nM in each case.

Take `Cn1cnc(Nc2cc(Nc3cc4c(s3)C(=O)NC43CCCCC3)ncn2)c1` [Compound XXXI-B, 2′-((6-((1-methyl-1H-imidazol-4-yl)amino)pyrimidin-4-yl)amino)spiro[cyclohexane-1,4′-thieno[2,3-c]pyrrol]-6′(5′H)-one]: the IC50 at MNK2 lay within 10 to 100 nM; in the experiment on TMD-8 cell p-IF4E, 100 to 1000 nM.
